The results in this text go back to patent publication US20180312237A1, “BALLAST WATER TREATMENT DEVICE AND BALLAST WATER TREATMENT METHOD” (Kuraray Co., Ltd., priority 2015, published 2018).

One data set concerns heterotrophic bacteria. In words: Number of heterotrophic bacteria (seawater medium) in sampled ballast water. The format is cell-based. How it is done: In the present example, using a ballast water treatment device 100 shown in FIG. 8, 100 m^3 of seawater was supplied to a ballast tank 60 with a capacity of about 200 m^3. Specifically, first, a ballast pump 10 was activated to take in seawater from a pipe port 2A of a main pipe 2 by pump pressure. Microbes or particles in the seawater were removed by allowing the seawater to pass through a filter 20.
Next, by pouring a solution of TRO 2000 mg/L with dissolved sodium dichloroisocyanurate from a sterilizing component-introducing unit 40 to the seawater after being filtered by the above filter, the seawater was made to include a chlorine component. […]
(§1) With respect to each of the above sampled three kinds of ballast water (the ballast water immediately after filling, the ballast water after a lapse of 10 days after filling, and the ballast water in the ballast tank after the ballast water circulation), a TRO concentration and the number of heterotrophic bacteria (seawater medium) were measured. Additionally, as a comparison, the number of heterotrophic bacteria of the seawater was measured. As the TRO concentration, a value measured by a DPD colorimeter II (product of Hach Company) was adopted.

Data set [1] is described as follows: TRO concentration of sampled ballast water, DPD colorimeter II. The class given is physicochemical. Here is the method: The ballast water treatment device 1 further includes a concentration measurement unit 41. […] The concentration measurement unit 41 is a sensor for measuring a chlorine concentration of ballast water in the ballast tank 60. Here, a “chlorine concentration (mg/L)” is measured as a total residual oxidant (TRO) concentration of seawater. The TRO concentration can be measured by a measuring instrument using a DPD reagent or the like. […] While in the present embodiment, the concentration measurement unit 41 is attached to the ballast tank 60, the position of the concentration measurement unit 41 is not limited thereto but can be any position that enables a concentration of a sterilizing component of the ballast water in the ballast tank 60 to be measured. For example, the concentration measurement unit 41 may be attached to the circulation pipe 80, or the concentration measurement unit 41 may be attached to the detour pipe 90, or the concentration measurement unit 41 may be attached to the main pipe 2 between the first connection part 2C and the second connection part 2D.
Next, by pouring a solution of TRO 2000 mg/L with dissolved sodium dichloroisocyanurate from a sterilizing component-introducing unit 40 to the seawater after being filtered by the above filter, the seawater was made to include a chlorine component. By stirring the seawater including a chlorine component by a mixer 50, a chlorine component in the seawater was made uniform to become ballast water, and the ballast tank 60 was filled with the ballast water. […]
as §1

Setting [2] is: ballast water after a lapse of 10 days after filling.

In the case of `O=c1[n-]c(=O)n(Cl)c(=O)n1Cl.[Na+]` [sodium dichloroisocyanurate], the “The number of bacteria” value in the data set on heterotrophic bacteria (setting [2]) is recorded as 4.6 × 10^5 cfu/cc; in the data set with heterotrophic bacteria (ballast water immediately after filling, filtered seawater with poured TRO 2000 mg/L solution), 7.4 × 10^1 cfu/cc. Further, the TRO concentration is given as 0.2 mg/L in data set [1] (setting [2]), 3.2 mg/L in data set [1] (ballast water after circulation with additional sterilizing component) and 5.0 mg/L in data set [1] (ballast water immediately after filling).
